Laboratory results from US20090004302A1, “Methods and Therapeutic Compositions Comprising Plant Extracts for the Treatment of Cancer” (priority 2004, published 2009).
Where “and” joins values, the source holds several entries; their conditions need not be identical. Equal entries are not always repeated.

Columns and labels:
[1] = system: LLC1 cells clone M27 lung tumour metastases; experiment: Lewis lung carcinoma (LLC) model of tumour metastasis; format: in vivo, C57BL/6 mice; conditions: for Mean (SD) tumours/animal / % reduction compared to control (lung tumour metastases) / Total tumour burden (per group): Day 14
Method: The Lewis lung carcinoma model in C57BL/6 mice was used for this study. Lewis lung carcinoma is an aggressive, highly metastatic cell line. LLC1 cells clone M27 (3×10^5 cells, screened for mycoplasma) were injected on Day 0 into the tail vein of each mouse. The mice were divided into 7 groups and received the treatments outlined below. Oral administration of plant extracts was initiated 9 days prior to injection of LLC cells (i.e. on day-9) and continued for […] along with sub-optimal doses of cisplatin (see below). Group 1: […] Group 2: […] Group 3: […] Group 4: Therapeutic combination 1 (TC1) was administered to this group. […] Group 5: Therapeutic combination 2 (TC2) was administered to this group. […] Group 6: Therapeutic combination 3 (TC3) was administered to this group. […] Group 7: Therapeutic combination 4 (TC4) was administered to this group. […] At the end of the experiment (Day 14), the animals were humanely sacrificed, the lungs resected and fixed by direct immersion for approximately 24 hrs in Bouin's fixing media. Metastatic colonies on each lung surface of each mouse were counted by direct observation under a dissecting microscope in a blinded manner by three different investigators.

[2] = system: B16F10 melanoma subcutaneous tumour; experiment: B16F10 melanoma model of tumour growth; format: in vivo, C57BL/6 mice; conditions: Day 14
Method: The B16F10 melanoma model in C57BL/6 mice was used for this study. B16F10 cells (1×10^6 cells, screened for mycoplasma) were injected subcuteanously on Day 0 on the right flank of each mouse. The mice were divided into 9 groups and received the treatments outlined below. Plant extracts A and B (see Example VI) were used in this study.
Oral administration of plant extracts was initiated 7 days prior to injection of the B16F10 cells (i.e. on day-7) and continued for […] with or without sub-optimal doses of doxorubicin (see below).
Group 1: The vehicle used for administration of the plant extracts was used as a negative control for the experiment. Group 2: Doxorubicin (2.5 mg/kg), a standard positive control in the B16F10 melanoma model at optimal dosage, was injected intraperitoneally on days 5, 9 and 13. Group 3: Doxorubicin (1 mg/kg), a sub-optimal dose in this model, was injected intraperitoneally on days 5, 9 and 13. Group 4: Therapeutic plant extract A (PA1) was administered by gavage (200 mg/kg) from days-7 to 14. Group 5: Therapeutic plant extract B (PB1) was administered by gavage (200 mg/kg) from days-7 to 14. Group 6: Therapeutic combination 5 (TC5) was administered to this group. TC5 comprised plant extract A and doxorubicin (1 mg/kg). Plant extract A was administered by gavage (200 mg/kg) from days-7 to 14 and doxorubicin was injected intraperitoneally on days 5, 9 and 13. Group 7: Therapeutic combination 6 (TC6) was administered to this group. TC6 comprised plant extract B and doxorubicin (1 mg/kg). Plant extract B was administered by gavage (200 mg/kg) from days-7 to 14 and doxorubicin was injected intraperitoneally on days 5, 9 and 13. Group 8: Therapeutic combination 7 (TC7) was administered to this group. TC7 comprised plant extract A, plant extract B and doxorubicin (1 mg/kg). […]
The subcutaneous tumour was measured on each animal with an electronic calliper starting on day 5 and repeated on days 8, 11 and 14 and the volume of tumour was calculated according to formula: […]. […]

Row | SMILES | Mean (SD) tumours/animal ([1]; cisplatin 2 mg/kg i.p. days 1, 4, 7, 10, 13) | % reduction compared to control (lung tumour metastases) ([1]; cisplatin 2 mg/kg i.p.) | Total tumour burden (per group) ([1]; cisplatin 2 mg/kg i.p.) | body weight of animals ([1]; cisplatin 5 mg/kg dose) | Mean (SD) tumours/animal ([1]; cisplatin 5 mg/kg i.p. days 1, 4, 7, 10, 13) | % reduction compared to control (lung tumour metastases) ([1]; cisplatin 5 mg/kg i.p.) | Total tumour burden (per group) ([1]; cisplatin 5 mg/kg i.p.) | Volume (mm^3) of tumour ([2]; doxorubicin 1 mg/kg i.p. days 5, 9, 13) | % growth of tumour ([2]; doxorubicin 1 mg/kg i.p.) | Diameter (mm) of tumour ([2]; doxorubicin 1 mg/kg i.p.)
1 | N.N.[Cl][Pt][Cl] [Cisplatin] | 24.70 | 27% and 26.7% | 346 | sharp decrease | 1.46 | 96% and 95.6% | 21 |  |  | 
2 | COc1cccc2c1C(=O)c1c(O)c3c(c(O)c1C2=O)C[C@@](O)(C(=O)CO)C[C@@H]3O[C@H]1C[C@H](N)[C@H](O)[C@H](C)O1 [Doxorubicin] |  |  |  |  |  |  |  | 2682 ± 220 mm^3 | 247 ± 30% | 21.4 ± 1.1 mm
